Consider six molecules from patent US11981658B2, “Substituted aminopyridine compounds as EGFR inhibitors” (YUHAN CORPORATION, priority 2021, dated 2024).

Structures are written as SMILES. Like-named read-outs stand apart in the source and are kept apart here.

In assay [1] the target is EGFR Del19/T790M/C797S (Homo sapiens, UniProt P00533, C797S/DEL746-750/T790M). The assay is described as follows: Biochemical EGFR kinase inhibition assay (Lance Ultra TR-FRET), triple mutant del19/T790M/C797S. The gist of the method: (§1)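 In this biochemical assay, phosphorylation after a one-hour room-temperature reaction was detected with europium-labelled anti-phosphopeptide antibody at 2 nM final concentration.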
A general note: TR-FRET usually uses a lanthanide donor and a delayed reading to cut background.

The target of assay [2] is EGFR L858R/T790M/C797S (Homo sapiens, UniProt P00533, C797S/L858R/T790M). The assay is described as follows: Biochemical EGFR kinase inhibition assay (Lance Ultra TR-FRET), triple mutant L858R/T790M/C797S. The method in brief: as §1
For assay [3], the target named is EGFR Del19/C797S (Homo sapiens, UniProt P00533, C797S/DEL746-750). The assay is described as follows: Biochemical EGFR kinase inhibition assay (Lance Ultra TR-FRET), double mutant del19/C797S. The method in brief: as §1
For assay [4], the target named is EGFR L858R/C797S (Homo sapiens, UniProt P00533, C797S/L858R). As to the kind of experiment: Biochemical EGFR kinase inhibition assay (Lance Ultra TR-FRET), double mutant L858R/C797S. The method in brief:
as §1

Assay [5] deals with EGFR wildtype (WT) (Homo sapiens, UniProt P00533). As to the kind of experiment: Biochemical EGFR kinase inhibition assay (Lance Ultra TR-FRET), wildtype. The gist of the method: as §1
[6] abbreviates: IC50 Del19/T790M/C797S (nM), 100 μM ATP.
Where [7] appears, read: IC50 L858R/T790M/C797S (nM), 100 μM ATP.
Where [8] appears, read: IC50 Del19/C797S (nM), 100 μM ATP.
Where [9] appears, read: IC50 L858R/C797S (nM), 100 μM ATP.
The mark [10] stands for this setting: ATP at Km, read-out: IC50 Del19/T790M/C797S (nM), Km ATP.
[11] abbreviates: ATP at Km, read-out: IC50 L858R/T790M/C797S (nM), Km ATP.
Setting [12] is: ATP at Km, read-out: IC50 Del19/C797S (nM), Km ATP.
Setting [13] is: ATP at Km, read-out: IC50 L858R/C797S (nM), Km ATP.
The mark [14] stands for this setting: ATP at Km, read-out: IC50 WT (nM), Km ATP.

Sequence of EGFR Del19/T790M/C797S (P00533 with tags, fused parts or gaps DEL746-750/T790M/C797S): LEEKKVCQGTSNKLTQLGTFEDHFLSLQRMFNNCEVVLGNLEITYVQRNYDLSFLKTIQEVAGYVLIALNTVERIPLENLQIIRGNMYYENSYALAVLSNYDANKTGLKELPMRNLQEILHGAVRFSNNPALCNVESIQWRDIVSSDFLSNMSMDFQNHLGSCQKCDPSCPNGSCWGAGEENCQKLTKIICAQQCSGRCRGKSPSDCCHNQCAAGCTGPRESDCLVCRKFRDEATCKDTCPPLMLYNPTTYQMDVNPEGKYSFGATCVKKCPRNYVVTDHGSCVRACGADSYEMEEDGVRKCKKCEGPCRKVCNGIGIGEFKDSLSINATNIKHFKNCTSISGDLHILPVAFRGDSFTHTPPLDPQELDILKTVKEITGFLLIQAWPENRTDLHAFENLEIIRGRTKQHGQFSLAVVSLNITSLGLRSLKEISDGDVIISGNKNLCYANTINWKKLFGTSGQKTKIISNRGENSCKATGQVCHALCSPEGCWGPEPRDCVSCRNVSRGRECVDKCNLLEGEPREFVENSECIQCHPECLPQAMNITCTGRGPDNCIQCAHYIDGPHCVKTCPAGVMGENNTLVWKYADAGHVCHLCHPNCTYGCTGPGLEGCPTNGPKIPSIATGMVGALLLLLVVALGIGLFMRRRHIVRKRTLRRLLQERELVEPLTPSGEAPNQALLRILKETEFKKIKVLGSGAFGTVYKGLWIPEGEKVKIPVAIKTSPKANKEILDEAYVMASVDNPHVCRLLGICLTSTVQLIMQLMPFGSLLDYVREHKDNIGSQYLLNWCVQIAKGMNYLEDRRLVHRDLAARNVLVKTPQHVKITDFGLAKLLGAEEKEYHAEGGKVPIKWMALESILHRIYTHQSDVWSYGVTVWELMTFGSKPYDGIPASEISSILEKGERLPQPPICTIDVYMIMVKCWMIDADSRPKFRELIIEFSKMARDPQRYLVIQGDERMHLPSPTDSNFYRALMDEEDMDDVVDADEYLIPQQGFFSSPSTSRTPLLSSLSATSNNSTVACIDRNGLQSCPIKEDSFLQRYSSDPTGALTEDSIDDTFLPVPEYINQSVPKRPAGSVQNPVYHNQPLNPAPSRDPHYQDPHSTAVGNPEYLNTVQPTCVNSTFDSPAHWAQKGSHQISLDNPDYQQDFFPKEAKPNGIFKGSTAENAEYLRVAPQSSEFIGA
Sequence of EGFR Del19/C797S (P00533 with tags, fused parts or gaps DEL746-750/C797S): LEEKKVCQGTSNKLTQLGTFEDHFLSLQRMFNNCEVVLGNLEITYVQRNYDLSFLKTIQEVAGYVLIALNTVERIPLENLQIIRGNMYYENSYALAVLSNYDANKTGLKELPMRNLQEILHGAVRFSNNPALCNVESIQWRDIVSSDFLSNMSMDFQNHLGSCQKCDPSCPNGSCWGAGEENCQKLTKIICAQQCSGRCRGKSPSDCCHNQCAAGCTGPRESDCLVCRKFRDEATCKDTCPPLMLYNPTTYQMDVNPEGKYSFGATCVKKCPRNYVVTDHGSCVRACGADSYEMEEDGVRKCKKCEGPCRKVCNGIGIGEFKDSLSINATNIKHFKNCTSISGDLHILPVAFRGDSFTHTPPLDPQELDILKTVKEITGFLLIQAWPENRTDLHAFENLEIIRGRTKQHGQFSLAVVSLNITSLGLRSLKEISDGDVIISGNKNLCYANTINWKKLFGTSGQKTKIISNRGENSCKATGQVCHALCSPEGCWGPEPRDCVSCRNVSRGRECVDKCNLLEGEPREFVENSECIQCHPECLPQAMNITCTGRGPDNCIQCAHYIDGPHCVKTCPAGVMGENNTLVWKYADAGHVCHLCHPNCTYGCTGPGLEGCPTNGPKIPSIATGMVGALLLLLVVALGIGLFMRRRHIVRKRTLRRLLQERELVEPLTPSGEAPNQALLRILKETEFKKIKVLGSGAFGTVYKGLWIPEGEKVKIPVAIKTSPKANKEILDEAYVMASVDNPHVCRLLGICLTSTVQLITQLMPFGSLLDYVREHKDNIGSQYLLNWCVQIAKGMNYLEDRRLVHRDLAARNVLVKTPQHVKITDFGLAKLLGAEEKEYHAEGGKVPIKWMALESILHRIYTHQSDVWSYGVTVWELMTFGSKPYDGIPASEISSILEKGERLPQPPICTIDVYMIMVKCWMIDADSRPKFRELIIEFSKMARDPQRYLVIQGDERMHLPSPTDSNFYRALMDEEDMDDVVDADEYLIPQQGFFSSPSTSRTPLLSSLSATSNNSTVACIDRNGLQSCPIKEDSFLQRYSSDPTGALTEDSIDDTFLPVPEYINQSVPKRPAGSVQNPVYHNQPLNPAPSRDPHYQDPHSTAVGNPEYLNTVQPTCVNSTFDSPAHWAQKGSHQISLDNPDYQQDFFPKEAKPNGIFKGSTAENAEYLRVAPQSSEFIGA
Sequence of EGFR L858R/C797S (P00533 25-1210 C797S/L858R): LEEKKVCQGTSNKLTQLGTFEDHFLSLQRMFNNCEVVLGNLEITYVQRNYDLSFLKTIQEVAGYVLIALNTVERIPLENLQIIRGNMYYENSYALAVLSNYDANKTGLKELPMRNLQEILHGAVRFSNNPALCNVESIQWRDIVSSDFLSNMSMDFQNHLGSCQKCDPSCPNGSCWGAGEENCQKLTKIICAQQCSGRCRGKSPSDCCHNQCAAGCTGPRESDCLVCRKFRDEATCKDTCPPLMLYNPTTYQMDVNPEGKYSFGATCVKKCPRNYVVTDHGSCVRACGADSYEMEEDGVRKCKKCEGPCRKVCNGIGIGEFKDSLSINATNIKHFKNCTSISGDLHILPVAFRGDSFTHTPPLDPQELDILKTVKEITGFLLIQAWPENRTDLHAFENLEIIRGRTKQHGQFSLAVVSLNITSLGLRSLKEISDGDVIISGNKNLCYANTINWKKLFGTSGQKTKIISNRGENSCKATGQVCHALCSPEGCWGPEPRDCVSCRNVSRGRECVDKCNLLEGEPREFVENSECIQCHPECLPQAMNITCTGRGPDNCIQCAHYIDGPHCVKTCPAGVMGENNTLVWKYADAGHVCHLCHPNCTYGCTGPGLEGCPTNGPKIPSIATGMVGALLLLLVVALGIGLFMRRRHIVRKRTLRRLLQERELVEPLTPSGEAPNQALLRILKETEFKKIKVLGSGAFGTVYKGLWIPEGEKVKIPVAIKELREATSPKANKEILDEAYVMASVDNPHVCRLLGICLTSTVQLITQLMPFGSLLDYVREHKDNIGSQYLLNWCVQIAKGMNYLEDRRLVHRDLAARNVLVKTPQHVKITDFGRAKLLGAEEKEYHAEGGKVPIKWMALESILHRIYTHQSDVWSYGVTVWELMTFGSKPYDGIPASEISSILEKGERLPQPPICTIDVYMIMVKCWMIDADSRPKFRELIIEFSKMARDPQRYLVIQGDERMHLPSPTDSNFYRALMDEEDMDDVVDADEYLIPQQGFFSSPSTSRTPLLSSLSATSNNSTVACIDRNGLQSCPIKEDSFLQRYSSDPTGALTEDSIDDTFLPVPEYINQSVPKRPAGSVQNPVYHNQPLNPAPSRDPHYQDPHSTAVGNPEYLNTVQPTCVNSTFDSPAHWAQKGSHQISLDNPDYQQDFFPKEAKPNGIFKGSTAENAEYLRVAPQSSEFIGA
Sequence of EGFR L858R/T790M/C797S (P00533 25-1210 T790M/C797S/L858R): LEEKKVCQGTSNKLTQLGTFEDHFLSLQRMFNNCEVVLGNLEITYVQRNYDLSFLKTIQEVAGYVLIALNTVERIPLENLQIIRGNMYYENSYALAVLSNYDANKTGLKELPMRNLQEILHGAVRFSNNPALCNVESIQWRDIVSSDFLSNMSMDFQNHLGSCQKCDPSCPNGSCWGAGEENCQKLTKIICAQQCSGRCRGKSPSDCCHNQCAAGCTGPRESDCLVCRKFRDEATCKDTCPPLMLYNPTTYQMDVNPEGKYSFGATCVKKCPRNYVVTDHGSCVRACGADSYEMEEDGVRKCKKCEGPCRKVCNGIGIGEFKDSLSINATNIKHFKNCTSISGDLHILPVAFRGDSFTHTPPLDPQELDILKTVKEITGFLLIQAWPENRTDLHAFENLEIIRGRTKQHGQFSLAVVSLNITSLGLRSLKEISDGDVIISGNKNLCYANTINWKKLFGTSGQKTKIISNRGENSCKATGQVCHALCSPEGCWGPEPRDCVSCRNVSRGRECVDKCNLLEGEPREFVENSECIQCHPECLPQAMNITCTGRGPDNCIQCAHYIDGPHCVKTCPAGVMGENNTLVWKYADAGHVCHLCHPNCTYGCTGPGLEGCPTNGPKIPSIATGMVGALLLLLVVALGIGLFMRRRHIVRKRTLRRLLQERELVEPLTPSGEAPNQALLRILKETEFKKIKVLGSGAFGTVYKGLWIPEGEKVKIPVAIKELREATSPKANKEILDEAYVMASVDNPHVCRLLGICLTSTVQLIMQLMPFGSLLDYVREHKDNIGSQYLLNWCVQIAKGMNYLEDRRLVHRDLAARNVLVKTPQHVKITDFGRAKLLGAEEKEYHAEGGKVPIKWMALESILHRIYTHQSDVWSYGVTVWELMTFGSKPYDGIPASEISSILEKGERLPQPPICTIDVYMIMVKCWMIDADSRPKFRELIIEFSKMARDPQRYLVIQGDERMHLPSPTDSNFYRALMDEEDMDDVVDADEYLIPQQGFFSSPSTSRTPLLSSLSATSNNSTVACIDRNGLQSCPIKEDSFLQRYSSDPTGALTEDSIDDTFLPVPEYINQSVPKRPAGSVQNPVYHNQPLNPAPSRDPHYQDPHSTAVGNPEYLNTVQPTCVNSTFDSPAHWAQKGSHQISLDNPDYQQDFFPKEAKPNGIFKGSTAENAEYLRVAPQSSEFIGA

Take `CNC1CCN(c2cc(Nc3ccnc(-c4cnn(S(=O)(=O)C5CC5)c4)n3)ncc2C#Cc2cnn(C)c2)CC1` [Example 130, 2-(1-(Cyclopropylsulfonyl)-1H-pyrazol-4-yl)-N-(5-((1-methyl-1H-pyrazol-4-yl)ethynyl)-4-(4-(methylamino)piperidin-1-yl)pyridin-2-yl)pyrimidin-4-amine]: the IC50 is 1.4 nM in assay [1] (setting [6]); 5.1 nM in assay [2] (setting [7]); 107 nM in assay [3] (setting [8]); 68.7 nM in assay [4] (setting [9]); > 10000 nM in assay [5] (IC50 WT (nM), 100 μM ATP).
Consider `CC1(CO)CCN(c2cc(Nc3ccnc(-c4cnn(S(=O)(=O)C5CC5)c4)n3)ncc2C#CC2(O)CCCCC2)CC1` [Example 175, 1-((6-((2-(1-(Cyclopropylsulfonyl)-1H-pyrazol-4-yl)pyrimidin-4-yl)amino)-4-(4-(hydroxymethyl)-4-methylpiperidin-1-yl)pyridin-3-yl)ethynyl)cyclohexan-1-ol], for which the IC50 in assay [1] (setting [10]) stood at 1.2 nM; in assay [1] (setting [6]), 1.4 nM; in assay [2] (setting [11]) it was 3.6 nM; in assay [2] (setting [7]), 3.6 nM; in assay [3] (setting [12]), 13.3 nM; in assay [3] (setting [8]), 17.2 nM. Further, the IC50 in assay [4] (setting [13]) was 33.5 nM; in assay [4] (setting [9]), 333 nM; in assay [5] (setting [14]), 131 nM; in assay [5] (IC50 WT (nM), 100 μM ATP), > 10000 nM.
With `CC1(CO)CCN(c2cc(Nc3ccnc(-c4cnn(S(=O)(=O)C5CC5)c4)n3)ncc2C#Cc2cnn(C3CCOC3)c2)CC1` (stereo not drawn) [Example 244, (1-(2-((2-(1-(Cyclopropylsulfonyl)-1H-pyrazol-4-yl)pyrimidin-4-yl)amino)-5-((1-(tetrahydrofuran-3-yl)-1H-pyrazol-4-yl)ethynyl)pyridin-4-yl)-4-methylpiperidin-4-yl)methanol], the IC50 worked out at 0.8 nM in assay [1] (setting [10]); 1.3 nM in assay [1] (setting [6]); 0.5 nM in assay [2] (setting [11]); 1.5 nM in assay [2] (setting [7]); 0.6 nM in assay [3] (setting [12]); 0.5 nM in assay [3] (setting [8]). In addition, the IC50 in assay [4] (setting [13]) is 1 nM; in assay [4] (setting [9]), 3.1 nM; in assay [5] (setting [14]) it was 6 nM; in assay [5] (IC50 WT (nM), 100 μM ATP) it was 418 nM.
Turning to `CC(C)Nc1cc(Nc2ccnc(-c3cnn(S(=O)(=O)C4CC4)c3)n2)ncc1C#CCCCCNC(=O)N1CCOCC1` [Example 209, N-(6-(6-((2-(1-(Cyclopropylsulfonyl)-1H-pyrazol-4-yl)pyrimidin-4-yl)amino)-4-(isopropylamino)pyridin-3-yl)hex-5-yn-1-yl)morpholine-4-carboxamide], the IC50 in assay [1] (setting [6]) was 2.6 nM; in assay [2] (setting [7]), 4.4 nM; in assay [3] (setting [8]), 120 nM; in assay [4] (setting [9]) it was 112 nM; in assay [5] (IC50 WT (nM), 100 μM ATP) it was > 10000 nM.
Consider `CN(C)C[C@H]1CC[C@H](COc2cc(Nc3ccnc(-c4cnn(S(=O)(=O)C5CC5)c4)n3)ncc2C#Cc2cnn(C)c2)CC1` [Example 58, 2-(1-(Cyclopropylsulfonyl)-1H-pyrazol-4-yl)-N-(4-(((1r,4r)-4-((dimethylamino)methyl)cyclohexyl)methoxy)-5-((1-methyl-1H-pyrazol-4-yl)ethynyl)pyridin-2-yl)pyrimidin-4-amine], for which the IC50 in assay [1] (setting [6]) came out at 1.1 nM; in assay [1] (Km ATP, read-out: IC50 Del19/T790M/C797S (nM) Km ATP), 0.3 nM; in assay [2] (setting [7]) it was 0.5 nM; in assay [2] (Km ATP, read-out: IC50 L858R/T790M/C797S (nM) Km ATP) it was 0.1 nM; in assay [3] (setting [8]) it was 2.8 nM; in assay [3] (Km ATP, read-out: IC50 Del19/C797S (nM) Km ATP), 0.6 nM. Further, the IC50 was 24.7 nM in assay [4] (setting [9]); 4.7 nM in assay [4] (Km ATP, read-out: IC50 L858R/C797S (nM) Km ATP); > 10000 nM in assay [5] (IC50 WT (nM), 100 μM ATP); 15.1 nM in assay [5] (Km ATP, read-out: IC50 WT (nM) Km ATP).
For `CC(C)Nc1cc(Nc2ccnc(-c3cnn(S(=O)(=O)C4CC4)c3)n2)ncc1C#CCN1CCCC1` [Example 203, N^2-(2-(1-(Cyclopropylsulfonyl)-1H-pyrazol-4-yl)pyrimidin-4-yl)-N^4-isopropyl-5-(3-(pyrrolidin-1-yl)prop-1-yn-1-yl)pyridine-2,4-diamine], the IC50 was found to be 2.2 nM in assay [1] (setting [10]); 1.4 nM in assay [2] (setting [11]); 68.1 nM in assay [3] (setting [12]); 110 nM in assay [4] (setting [13]); 437 nM in assay [5] (setting [14]).
